From ChEMBL document CHEMBL3885861, “Open TG-GATES”

Species: Rattus norvegicus
Assay: Open TG-GATES - Regimen: Daily Repeat
Type: toxicity, organism-based, Sprague-Dawley
Design: regimen Daily Repeat, gender Male, age 6 weeks
Details: in vivo, po, 0 mg/kg, […], route gavage, dose level Control; for KIDNEY_L / KIDNEY_R / KIDNEY_TOTAL: tissue Kidney; for LIVER: tissue Liver; for A/G / ALP / ALT / AST / BUN / CRE / Ca / Cl / DBIL / GLC / IP / K / LDH / Na / PL / RALB / TBIL / TC / TG / TP / gamma-GTP: tissue Plasma

O=C1CN(/N=C/c2ccc([N+](=O)[O-])o2)C(=O)N1 [NITROFURANTOIN]
Lym (tissue Blood, time 28 day): 84%
MCH (tissue Blood, time 28 day): 19.8 pg
MCHC (tissue Blood, time 28 day): 35%
MCV (tissue Blood, time 28 day): 56.4 fL
Mono (tissue Blood, time 28 day): 1.6%
Neu (tissue Blood, time 28 day): 12.4%
PT (tissue Blood, time 28 day): 12.4 s
Plat (tissue Blood, time 28 day): 107.4 x10_4/uL
RBC (tissue Blood, time 28 day): 757.4 x10_4/ul
Ret (tissue Blood, time 28 day): 2.4%
WBC (tissue Blood, time 28 day): 107.5 x10_2/uL
KIDNEY_L (time 7 day): 1.2 g
KIDNEY_R (time 7 day): 1.2 g
KIDNEY_TOTAL (time 7 day): 2.4 g
KIDNEY_L (time 14 day): 1.3 g
KIDNEY_R (time 14 day): 1.3 g
KIDNEY_TOTAL (time 14 day): 2.6 g
KIDNEY_L (time 28 day): 1.5 g
KIDNEY_R (time 28 day): 1.5 g
KIDNEY_TOTAL (time 28 day): 2.9 g
LIVER (time 7 day): 13 g
LIVER (time 14 day): 14.5 g
LIVER (time 28 day): 17.7 g
A/G (time 7 day): 1.5
ALP (time 7 day): 943.4 IU/L
ALT (time 7 day): 32.8 IU/L
AST (time 7 day): 63.2 IU/L
BUN (time 7 day): 16.4 mg/dL
CRE (time 7 day): 0.4 mg/dL
Ca (time 7 day): 10.8 mg/dL
Cl (time 7 day): 101 meq/L
DBIL (time 7 day): 0.1 mg/dL
GLC (time 7 day): 192.8 mg/dL
IP (time 7 day): 6.9 mg/dL
K (time 7 day): 4.4 meq/L
LDH (time 7 day): 238.6 IU/L
Na (time 7 day): 139.8 meq/L
PL (time 7 day): 166.8 mg/dL
RALB (time 7 day): 3.5 g/dL
TBIL (time 7 day): 0.2 mg/dL
TC (time 7 day): 79.4 mg/dL
TG (time 7 day): 141 mg/dL
TP (time 7 day): 5.8 g/dL
gamma-GTP (time 7 day): 0.6 IU/L
A/G (time 14 day): 1.4
ALP (time 14 day): 818 IU/L
ALT (time 14 day): 34.4 IU/L
AST (time 14 day): 60.6 IU/L
BUN (time 14 day): 16.6 mg/dL
CRE (time 14 day): 0.4 mg/dL
Ca (time 14 day): 10.4 mg/dL
Cl (time 14 day): 101.6 meq/L
DBIL (time 14 day): 0.1 mg/dL
GLC (time 14 day): 218.2 mg/dL
IP (time 14 day): 6.7 mg/dL
K (time 14 day): 3.7 meq/L
LDH (time 14 day): 189.6 IU/L
Na (time 14 day): 140 meq/L
PL (time 14 day): 153.2 mg/dL
RALB (time 14 day): 3.4 g/dL
TBIL (time 14 day): 0.2 mg/dL
TC (time 14 day): 66.4 mg/dL
TG (time 14 day): 148.8 mg/dL
TP (time 14 day): 5.9 g/dL
gamma-GTP (time 14 day): 1 IU/L
A/G (time 28 day): 1.3
ALP (time 28 day): 551.8 IU/L
ALT (time 28 day): 32.8 IU/L
AST (time 28 day): 54.8 IU/L
BUN (time 28 day): 16.6 mg/dL
CRE (time 28 day): 0.5 mg/dL
Ca (time 28 day): 10.4 mg/dL
Cl (time 28 day): 102.4 meq/L
DBIL (time 28 day): 0.1 mg/dL
GLC (time 28 day): 218 mg/dL
IP (time 28 day): 6.5 mg/dL
K (time 28 day): 3.6 meq/L
LDH (time 28 day): 125 IU/L
Na (time 28 day): 140 meq/L
PL (time 28 day): 162.4 mg/dL
RALB (time 28 day): 3.4 g/dL
TBIL (time 28 day): 0.2 mg/dL
TC (time 28 day): 78.4 mg/dL
TG (time 28 day): 139.2 mg/dL
TP (time 28 day): 6.1 g/dL
gamma-GTP (time 28 day): 1.2 IU/L
